target: human RAF1 (Homo sapiens, UniProt P04049); assay: Protein kinase assay (33P-ATP filter binding), human RAF1, 10-dose IC50; type: biochemical; details: MEK1 (K97R) substrate 3 micromolar, ATP 10 micromolar, read-out: RAF-1 IC50
How it was run: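 Radiometric filter-binding format: 10 µM ATP, 3 µM MEK1 (K97R) as substrate for human RAF1, 2 hr at room temperature in 20 mM HEPES pH 7.5 with 10 mM MgCl2. Compounds were dispensed acoustically from DMSO. IC50 came from percent kinase activity relative to vehicle over a 10-dose series.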

Chain of human RAF1 (P04049 whole entry): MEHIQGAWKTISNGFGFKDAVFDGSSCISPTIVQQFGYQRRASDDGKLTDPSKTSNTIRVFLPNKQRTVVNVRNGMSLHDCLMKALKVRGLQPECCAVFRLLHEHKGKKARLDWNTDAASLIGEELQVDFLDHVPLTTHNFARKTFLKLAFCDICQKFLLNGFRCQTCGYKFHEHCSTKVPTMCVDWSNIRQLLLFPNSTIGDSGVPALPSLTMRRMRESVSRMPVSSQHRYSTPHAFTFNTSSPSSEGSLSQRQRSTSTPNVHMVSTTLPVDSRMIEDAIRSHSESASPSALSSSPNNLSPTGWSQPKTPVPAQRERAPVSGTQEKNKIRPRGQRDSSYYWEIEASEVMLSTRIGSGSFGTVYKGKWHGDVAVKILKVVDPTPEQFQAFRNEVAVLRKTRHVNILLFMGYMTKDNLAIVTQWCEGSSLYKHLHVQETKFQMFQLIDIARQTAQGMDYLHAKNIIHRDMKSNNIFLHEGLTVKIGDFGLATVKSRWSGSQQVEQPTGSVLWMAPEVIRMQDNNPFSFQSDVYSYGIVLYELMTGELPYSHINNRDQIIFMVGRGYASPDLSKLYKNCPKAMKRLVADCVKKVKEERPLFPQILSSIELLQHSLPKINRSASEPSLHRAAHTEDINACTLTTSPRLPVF

Row | SMILES | IC50
1 | Cc1cc(F)c(NC(=O)N2CC=C(C(F)(F)C(F)(F)F)C2)cc1-c1cc(OCCO)nc(N2CCOCC2)c1 [Example 79, N-[2-fluoro-5-[2-(2-hydroxyethoxy)-6-(morpholin-4-yl)pyridin-4-yl]-4-methylphenyl]-3-(1,1,2,2,2-pentafluoroethyl)-2,5-dihydropyrrole-1-carboxamide] | < 10 nM
2 | Cc1cc(F)c(NC(=O)N2CCO[C@@H](C(F)(F)F)C2)cc1-c1cnc(OC2CCOCC2)c(N2CCOCC2)c1 [Example 87, (2R)-N-[2-fluoro-4-methyl-5-[5-(morpholin-4-yl)-6-(oxan-4-yloxy)pyridin-3-yl]phenyl]-2-(trifluoromethyl)morpholine-4-carboxamide] | < 10 nM
3 | C/C(=C1\CCN(C(=O)Nc2cc(-c3cc(OCCO)nc(N4CCOCC4)c3)c(C)cc2F)C1)C(F)(F)F [Example 94, (3Z)-N-[2-fluoro-5-[2-(2-hydroxyethoxy)-6-(morpholin-4-yl)pyridin-4-yl]-4-methylphenyl]-3-(1,1,1-trifluoropropan-2-ylidene)pyrrolidine-1-carboxamide] | < 10 nM
4 | C/C(=C1/CCN(C(=O)Nc2cc(-c3cc(OCCO)nc(N4CCOCC4)c3)c(C)cc2F)C1)C(F)(F)F [Example 95, (3E)-N-[2-fluoro-5-[2-(2-hydroxyethoxy)-6-(morpholin-4-yl)pyridin-4-yl]-4-methylphenyl]-3-(1,1,1-trifluoropropan-2-ylidene)pyrrolidine-1-carboxamide] | < 10 nM
5 | C/C(C#N)=C1/CCN(C(=O)Nc2cc(-c3cc(OCCO)nc(N4CCOCC4)c3)c(C)cc2F)C1 [Example 98, (3E)-3-(1-cyanoethylidene)-N-[2-fluoro-5-[2-(2-hydroxyethoxy)-6-(morpholin-4-yl)pyridin-4-yl]-4-methylphenyl]pyrrolidine-1-carboxamide] | < 10 nM
6 | Cc1cc(F)c(NC(=O)N2CCC(C(C)(C)C#N)C2)cc1-c1cc(OCCO)nc(N2CCOCC2)c1 (centres unmarked) [Example 99, 3-(1-cyano-1-methylethyl)-N-[2-fluoro-5-[2-(2-hydroxyethoxy)-6-(morpholin-4-yl)pyridin-4-yl]-4-methylphenyl]pyrrolidine-1-carboxamide] | < 10 nM
7 | Cc1cc(F)c(NC(=O)N2CC3(C(F)(F)F)CC2CO3)cc1-c1cc(OCCO)nc(N2CCOCC2)c1 (centres unmarked) [Example 107, N-[2-fluoro-5-[2-(2-hydroxyethoxy)-6-(morpholin-4-yl)pyridin-4-yl]-4-methylphenyl]-1-(trifluoromethyl)-2-oxa-5-azabicyclo[2.2.1]heptane-5-carboxamide] | < 10 nM
8 | Cc1ccc(NC(=O)N2CCC(CC(F)(F)F)C2)cc1-c1cnc(OC2CCOCC2)c(N2CCOCC2)c1 (centres unmarked) [Example 123, N-[4-methyl-3-[5-(morpholin-4-yl)-6-(oxan-4-yloxy)pyridin-3-yl]phenyl]-3-(2,2,2-trifluoroethyl)pyrrolidine-1-carboxamide] | < 10 nM
9 | Cc1ccc(NC(=O)Nc2cnn(C(F)(F)F)c2)cc1-c1cc(OCCO)nc(N2CCOCC2)c1 [Example 125, 1-[3-[2-(2-hydroxyethoxy)-6-(morpholin-4-yl)pyridin-4-yl]-4-methylphenyl]-3-[1-(trifluoromethyl)pyrazol-4-yl]urea] | < 10 nM
10 | Cc1cc(F)c(NC(=O)N2CC[C@H](OC(F)(F)F)C2)cc1-c1cnc(OC2CCOCC2)c(N2CCOCC2)c1 [Example 127, (3S)-N-[2-fluoro-4-methyl-5-[5-(morpholin-4-yl)-6-(oxan-4-yloxy)pyridin-3-yl]phenyl]-3-(trifluoromethoxy)pyrrolidine-1-carboxamide] | < 10 nM
11 | Cc1ccc(NC(=O)N2CC[C@@H](OC(F)(F)F)C2)cc1-c1cnc(OC2CCOCC2)c(N2CCOCC2)c1 [Example 128, (3R)-N-[4-methyl-3-[5-(morpholin-4-yl)-6-(oxan-4-yloxy)pyridin-3-yl]phenyl]-3-(trifluoromethoxy)pyrrolidine-1-carboxamide] | < 10 nM
12 | Cc1ccc(NC(=O)N2CC[C@H](OC(F)(F)F)C2)cc1-c1cnc(OC2CCOCC2)c(N2CCOCC2)c1 [Example 129, (3S)-N-[4-methyl-3-[5-(morpholin-4-yl)-6-(oxan-4-yloxy)pyridin-3-yl]phenyl]-3-(trifluoromethoxy)pyrrolidine-1-carboxamide] | < 10 nM
13 | Cc1ccc(NC(=O)Nc2cnn(C(F)(F)F)c2)cc1-c1cnc(OC2CCOCC2)c(N2CCOCC2)c1 [Example 130, 1-[4-methyl-3-[5-(morpholin-4-yl)-6-(oxan-4-yloxy)pyridin-3-yl]phenyl]-3-[1-(trifluoromethyl)pyrazol-4-yl]urea] | < 10 nM
14 | Cc1ccc(NC(=O)N2CC[C@H](SC(F)(F)F)C2)cc1-c1cnc(OC2CCOCC2)c(N2CCOCC2)c1 [Example 132, (3S)-N-[4-methyl-3-[5-(morpholin-4-yl)-6-(oxan-4-yloxy)pyridin-3-yl]phenyl]-3-[(trifluoromethyl)sulfanyl]pyrrolidine-1-carboxamide] | < 10 nM
15 | Cc1ccc(NC(=O)N2CC[C@@H](OCC(F)(F)F)C2)cc1-c1cc(OCCO)nc(N2CCOCC2)c1 [Example 133, (3R)-N-[3-[2-(2-hydroxyethoxy)-6-(morpholin-4-yl)pyridin-4-yl]-4-methylphenyl]-3-(2,2,2-trifluoroethoxy)pyrrolidine-1-carboxamide] | < 10 nM
16 | Cc1ccc(NC(=O)Nc2cnn(CC(F)(F)F)c2)cc1-c1cc(OCCO)nc(N2CCOCC2)c1 [Example 135, 1-[3-[2-(2-hydroxyethoxy)-6-(morpholin-4-yl)pyridin-4-yl]-4-methylphenyl]-3-[1-(2,2,2-trifluoroethyl)pyrazol-4-yl]urea] | < 10 nM
17 | Cc1ccc(NC(=O)N2CC[C@H](OCC(F)(F)F)C2)cc1-c1cc(OCCO)nc(N2CCOCC2)c1 [Example 137, (3S)-N-[3-[2-(2-hydroxyethoxy)-6-(morpholin-4-yl)pyridin-4-yl]-4-methylphenyl]-3-(2,2,2-trifluoroethoxy)pyrrolidine-1-carboxamide] | < 10 nM

The remaining lines, values ahead:

Row | IC50 | SMILES
18 | < 10 nM | Cc1cc(F)c(NC(=O)N2CCC3(CCCC3)C2)cc1-c1cc(OCCO)nc(N2CCOCC2)c1 [Example 73, N-(2-fluoro-5-(2-(2-hydroxyethoxy)-6-morpholinopyridin-4-yl)-4-methylphenyl)-2-azaspiro[4.4]nonane-2-carboxamide]
19 | < 10 nM | Cc1cc(F)c(NC(=O)N2CCC(C(O)C(F)(F)F)C2)cc1-c1cc(OCCO)nc(N2CCOCC2)c1 (centres unmarked) [Example 76, N-[2-fluoro-5-[2-(2-hydroxyethoxy)-6-(morpholin-4-yl)pyridin-4-yl]-4-methylphenyl]-3-(2,2,2-trifluoro-1-hydroxyethyl)pyrrolidine-1-carboxamide]
20 | < 10 nM | Cc1cc(F)c(NC(=O)N2CC/C(=C/C(F)(F)F)C2)cc1-c1cc(OCCO)nc(N2CCOCC2)c1 [Example 92, (Z)-N-(2-fluoro-5-(2-(2-hydroxyethoxy)-6-morpholinopyridin-4-yl)-4-methylphenyl)-3-(2,2,2-trifluoroethylidene)pyrrolidine-1-carboxamide]
21 | < 10 nM | Cc1cc(F)c(NC(=O)N2CC/C(=C\C(F)(F)F)C2)cc1-c1cc(OCCO)nc(N2CCOCC2)c1 [Example 93, (E)-N-(2-fluoro-5-(2-(2-hydroxyethoxy)-6-morpholinopyridin-4-yl)-4-methylphenyl)-3-(2,2,2-trifluoroethylidene)pyrrolidine-1-carboxamide]
22 | < 10 nM | Cc1cc(F)c(NC(=O)N2CC=C(CC(F)(F)F)C2)cc1-c1cc(OCCO)nc(N2CCOCC2)c1 [Example 96, N-[2-fluoro-5-[2-(2-hydroxyethoxy)-6-(morpholin-4-yl)pyridin-4-yl]-4-methylphenyl]-3-(2,2,2-trifluoroethyl)-2,5-dihydropyrrole-1-carboxamide]
23 | < 10 nM | Cc1cc(F)c(NC(=O)N2CCC(F)(F)C(C(F)(F)F)C2)cc1-c1cc(OCCO)nc(N2CCOCC2)c1 (centres unmarked) [Example 104, 4,4-difluoro-N-[2-fluoro-5-[2-(2-hydroxyethoxy)-6-(morpholin-4-yl)pyridin-4-yl]-4-methylphenyl]-3-(trifluoromethyl)piperidine-1-carboxamide]
24 | < 10 nM | Cc1ccc(NC(=O)N2CCC(C3CC3(F)F)C2)cc1-c1cc(OCCO)nc(N2CCOCC2)c1 (centres unmarked) [Example 114, 3-(2,2-difluorocyclopropyl)-N-[3-[2-(2-hydroxyethoxy)-6-(morpholin-4-yl)pyridin-4-yl]-4-methylphenyl]pyrrolidine-1-carboxamide]
25 | < 10 nM | Cc1cc(F)c(NC(=O)N2CC[C@@H](OC(F)(F)F)C2)cc1-c1cnc(OC2CCOCC2)c(N2CCOCC2)c1 [Example 126, (3R)-N-[2-fluoro-4-methyl-5-[5-(morpholin-4-yl)-6-(oxan-4-yloxy)pyridin-3-yl]phenyl]-3-(trifluoromethoxy)pyrrolidine-1-carboxamide]
26 | < 10 nM | Cc1ccc(NC(=O)N2CC[C@@H](SC(F)(F)F)C2)cc1-c1cnc(OC2CCOCC2)c(N2CCOCC2)c1 [Example 131, (3R)-N-[4-methyl-3-[5-(morpholin-4-yl)-6-(oxan-4-yloxy)pyridin-3-yl]phenyl]-3-[(trifluoromethyl)sulfanyl]pyrrolidine-1-carboxamide]
27 | < 10 nM | Cc1ccc(NC(=O)N2CCC(S(=O)(=O)C(F)(F)F)C2)cc1-c1cc(OCCO)nc(N2CCOCC2)c1 (centres unmarked) [Example 134, N-[3-[2-(2-hydroxyethoxy)-6-(morpholin-4-yl)pyridin-4-yl]-4-methylphenyl]-3-trifluoromethanesulfonylpyrrolidine-1-carboxamide]
28 | < 10 nM | Cc1ccc(NC(=O)N2CC/C(=C\C(F)(F)F)C2)cc1-c1cc(OCCO)nc(N2CCOCC2)c1 [Example 136, (3E)-N-[3-[2-(2-hydroxyethoxy)-6-(morpholin-4-yl)pyridin-4-yl]-4-methylphenyl]-3-(2,2,2-trifluoroethylidene)pyrrolidine-1-carboxamide]
29 | < 10 nM | Cc1ccc(NC(=O)N2CC[C@H](OC(C)C)C2)cc1-c1cc(OCCO)nc(N2CCOCC2)c1 [Example 138, (3S)-N-[3-[2-(2-hydroxyethoxy)-6-(morpholin-4-yl)pyridin-4-yl]-4-methylphenyl]-3-isopropoxypyrrolidine-1-carboxamide]

From patent US20230081390A1, “INHIBITORS OF RAF KINASES” (Kinnate Biopharma Inc., priority 2019, published 2023)
